Source: PubChem BioAssay (NCI)
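In this assay, cells in 96-well plates receive the compound at five concentrations for 48 hours. Endpoints are linearly interpolated between the surrounding concentrations. GI50: concentration for 50% inhibition of growth. TGI: concentration producing complete growth inhibition.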

How the values were obtained:
Test in all cases: NCI anticancer screen, dose series, 48 h
SF-295 CNS = tested on: SF-295 CNS
U251 CNS = tested on: U251 CNS
MDA-N = tested on: MDA-N
OVCAR-3 ovarian = tested on: OVCAR-3 ovarian
DU-145 prostate = tested on: DU-145 prostate
OVCAR-4 ovarian = tested on: OVCAR-4 ovarian
HCT-116 colon = tested on: HCT-116 colon
UACC-62 melanoma = tested on: UACC-62 melanoma
LOX IMVI melanoma = tested on: LOX IMVI melanoma
OVCAR-8 ovarian = tested on: OVCAR-8 ovarian
MDA-MB-435 = tested on: MDA-MB-435
T-47D breast = tested on: T-47D breast
SK-MEL-2 melanoma = tested on: SK-MEL-2 melanoma
UACC-257 melanoma = tested on: UACC-257 melanoma
ACHN renal = tested on: ACHN renal
RPMI-8226 leukemia = tested on: RPMI-8226 leukemia
PC-3 prostate = tested on: PC-3 prostate
HCT-15 colon = tested on: HCT-15 colon
NCI/ADR-RES ovarian = tested on: NCI/ADR-RES ovarian
OVCAR-5 ovarian = tested on: OVCAR-5 ovarian
CAKI-1 renal = tested on: CAKI-1 renal
K-562 leukemia = tested on: K-562 leukemia
SK-MEL-5 melanoma = tested on: SK-MEL-5 melanoma
HOP-92 NSCLC = tested on: HOP-92 NSCLC
SNB-75 CNS = tested on: SNB-75 CNS
SR leukemia = tested on: SR leukemia
SN12C renal = tested on: SN12C renal
IGROV1 ovarian = tested on: IGROV1 ovarian
SF-539 CNS = tested on: SF-539 CNS
MOLT-4 leukemia = tested on: MOLT-4 leukemia
KM12 colon = tested on: KM12 colon
SNB-19 CNS = tested on: SNB-19 CNS
NCI-H460 lung = tested on: NCI-H460 lung
A549 NSCLC = tested on: A549 NSCLC
NCI-H226 lung = tested on: NCI-H226 lung
A498 renal = tested on: A498 renal
CCRF-CEM leukemia = tested on: CCRF-CEM leukemia
786-0 renal = tested on: 786-0 renal
SK-OV-3 ovarian = tested on: SK-OV-3 ovarian
MCF7 breast = tested on: MCF7 breast
HL-60(TB) leukemia = tested on: HL-60(TB) leukemia
HOP-62 NSCLC = tested on: HOP-62 NSCLC
HS 578T breast = tested on: HS 578T breast
BT-549 breast = tested on: BT-549 breast
UO-31 renal = tested on: UO-31 renal
HT29 colon = tested on: HT29 colon
RXF 393 renal = tested on: RXF 393 renal
SK-MEL-28 melanoma = tested on: SK-MEL-28 melanoma
SW-620 colon = tested on: SW-620 colon
EKVX NSCLC = tested on: EKVX NSCLC
TK-10 renal = tested on: TK-10 renal
HCC-2998 colon = tested on: HCC-2998 colon
MALME-3M melanoma = tested on: MALME-3M melanoma
COLO 205 colon = tested on: COLO 205 colon
M14 melanoma = tested on: M14 melanoma
NCI-H23 lung = tested on: NCI-H23 lung
NCI-H522 lung = tested on: NCI-H522 lung
MDA-MB-231 breast = tested on: MDA-MB-231 breast
SF-268 CNS = tested on: SF-268 CNS

COC(=O)CNCC1OC2OC(C)(C)OC2C1N=[N+]=[N-] (stereo not drawn)
TGI (SF-295 CNS): > 100 µM
TGI (U251 CNS): > 100 µM
TGI (MDA-N): > 100 µM
TGI (OVCAR-3 ovarian): > 100 µM
TGI (DU-145 prostate): > 100 µM
TGI (OVCAR-4 ovarian): > 100 µM
TGI (HCT-116 colon): > 100 µM
TGI (UACC-62 melanoma): > 100 µM
TGI (LOX IMVI melanoma): > 100 µM
TGI (OVCAR-8 ovarian): > 100 µM
TGI (MDA-MB-435): > 100 µM
TGI (T-47D breast): > 100 µM
TGI (SK-MEL-2 melanoma): > 100 µM
TGI (UACC-257 melanoma): > 100 µM
TGI (ACHN renal): > 100 µM
TGI (RPMI-8226 leukemia): > 100 µM
TGI (PC-3 prostate): > 100 µM
TGI (HCT-15 colon): > 100 µM
TGI (NCI/ADR-RES ovarian): > 100 µM
TGI (OVCAR-5 ovarian): > 100 µM
TGI (CAKI-1 renal): > 100 µM
TGI (K-562 leukemia): > 100 µM
TGI (SK-MEL-5 melanoma): > 100 µM
TGI (HOP-92 NSCLC): > 100 µM
TGI (SNB-75 CNS): > 100 µM
TGI (SR leukemia): > 100 µM
TGI (SN12C renal): > 100 µM
TGI (IGROV1 ovarian): > 100 µM
TGI (SF-539 CNS): > 100 µM
TGI (MOLT-4 leukemia): > 100 µM
TGI (KM12 colon): > 100 µM
TGI (SNB-19 CNS): > 100 µM
TGI (NCI-H460 lung): > 100 µM
TGI (A549 NSCLC): > 100 µM
TGI (NCI-H226 lung): > 100 µM
TGI (A498 renal): > 100 µM
TGI (CCRF-CEM leukemia): > 100 µM
TGI (786-0 renal): > 100 µM
TGI (SK-OV-3 ovarian): > 100 µM
TGI (MCF7 breast): > 100 µM
TGI (HL-60(TB) leukemia): > 100 µM
TGI (HOP-62 NSCLC): > 100 µM
TGI (HS 578T breast): > 100 µM
TGI (BT-549 breast): > 100 µM
TGI (UO-31 renal): > 100 µM
TGI (HT29 colon): > 100 µM
TGI (RXF 393 renal): > 100 µM
TGI (SK-MEL-28 melanoma): > 100 µM
TGI (SW-620 colon): > 100 µM
TGI (EKVX NSCLC): > 100 µM
TGI (TK-10 renal): > 100 µM

Cc1ccc(S(=O)(=O)Nc2cc(Sc3ccccc3)c(O)c3ccccc23)cc1
GI50 (SF-295 CNS): 12.9 µM
TGI (SF-295 CNS): 26.8 µM
GI50 (U251 CNS): 1.94 µM
TGI (U251 CNS): 3.84 µM
GI50 (OVCAR-3 ovarian): 2.85 µM
TGI (OVCAR-3 ovarian): 8.24 µM
GI50 (DU-145 prostate): 3.83 µM
TGI (DU-145 prostate): 13.6 µM
GI50 (OVCAR-4 ovarian): 1.59 µM
TGI (OVCAR-4 ovarian): 2.95 µM
GI50 (HCT-116 colon): 3.13 µM
TGI (HCT-116 colon): 11.5 µM
GI50 (UACC-62 melanoma): 2.41 µM
TGI (UACC-62 melanoma): 6.72 µM
GI50 (HCC-2998 colon): 18.4 µM
TGI (HCC-2998 colon): 35.9 µM
GI50 (MALME-3M melanoma): 7.17 µM
TGI (MALME-3M melanoma): 19.6 µM
GI50 (LOX IMVI melanoma): 2.34 µM
TGI (LOX IMVI melanoma): 7.96 µM
GI50 (OVCAR-8 ovarian): 2.28 µM
TGI (OVCAR-8 ovarian): 5.88 µM
GI50 (MDA-MB-435): 1.8 µM
TGI (MDA-MB-435): 3.26 µM
GI50 (T-47D breast): 2.25 µM
TGI (T-47D breast): 5.99 µM
GI50 (SK-MEL-2 melanoma): 3.73 µM
TGI (SK-MEL-2 melanoma): 16 µM
GI50 (UACC-257 melanoma): 1.86 µM
TGI (UACC-257 melanoma): 3.67 µM
GI50 (ACHN renal): 2.8 µM
TGI (ACHN renal): 10.4 µM
GI50 (RPMI-8226 leukemia): 3.4 µM
TGI (RPMI-8226 leukemia): 22.8 µM
GI50 (PC-3 prostate): 2.2 µM
TGI (PC-3 prostate): 9.29 µM
GI50 (HCT-15 colon): 6.81 µM
TGI (HCT-15 colon): 25.1 µM
GI50 (COLO 205 colon): 19.5 µM
TGI (COLO 205 colon): 42.4 µM
GI50 (M14 melanoma): 6.49 µM
TGI (M14 melanoma): 19.9 µM
GI50 (NCI/ADR-RES ovarian): 3 µM
TGI (NCI/ADR-RES ovarian): 9.31 µM
GI50 (OVCAR-5 ovarian): 7.11 µM
TGI (OVCAR-5 ovarian): 21.3 µM
GI50 (CAKI-1 renal): 3.16 µM
TGI (CAKI-1 renal): 9.19 µM
GI50 (K-562 leukemia): 3.38 µM
TGI (K-562 leukemia): 10.7 µM
GI50 (SK-MEL-5 melanoma): 3.57 µM
TGI (SK-MEL-5 melanoma): 13.1 µM
GI50 (HOP-92 NSCLC): 2.02 µM
TGI (HOP-92 NSCLC): 4.57 µM
GI50 (NCI-H23 lung): 4.44 µM
TGI (NCI-H23 lung): 22 µM
GI50 (SNB-75 CNS): 12.9 µM
TGI (SNB-75 CNS): 25.5 µM
GI50 (SR leukemia): 3.27 µM
TGI (SR leukemia): 12.6 µM
GI50 (SN12C renal): 2.31 µM
TGI (SN12C renal): 5.68 µM
GI50 (IGROV1 ovarian): 3.5 µM
TGI (IGROV1 ovarian): 10.4 µM
GI50 (SF-539 CNS): 3.19 µM
TGI (SF-539 CNS): 9.51 µM
GI50 (MOLT-4 leukemia): 1.96 µM
TGI (MOLT-4 leukemia): 5.62 µM
GI50 (KM12 colon): 6.01 µM
TGI (KM12 colon): 18.9 µM
GI50 (NCI-H460 lung): 17.6 µM
TGI (NCI-H460 lung): 34.5 µM
GI50 (A549 NSCLC): 12.3 µM
TGI (A549 NSCLC): 28.5 µM
GI50 (NCI-H226 lung): 14.7 µM
TGI (NCI-H226 lung): 39.3 µM
GI50 (A498 renal): 13.1 µM
TGI (A498 renal): 28.8 µM
GI50 (CCRF-CEM leukemia): 2.4 µM
TGI (CCRF-CEM leukemia): 16.6 µM
GI50 (NCI-H522 lung): 13.1 µM
TGI (NCI-H522 lung): 27.6 µM
GI50 (SK-OV-3 ovarian): 15.6 µM
TGI (SK-OV-3 ovarian): 29.8 µM
GI50 (MCF7 breast): 1.95 µM
TGI (MCF7 breast): 4.79 µM
GI50 (HL-60(TB) leukemia): 1.57 µM
TGI (HL-60(TB) leukemia): 4.13 µM
GI50 (HOP-62 NSCLC): 7.99 µM
TGI (HOP-62 NSCLC): 25.5 µM
GI50 (HS 578T breast): 3.27 µM
TGI (HS 578T breast): 10.8 µM
GI50 (BT-549 breast): 11.9 µM
TGI (BT-549 breast): 24.2 µM
GI50 (UO-31 renal): 2.88 µM
TGI (UO-31 renal): 10.9 µM
GI50 (MDA-MB-231 breast): 2.43 µM
TGI (MDA-MB-231 breast): 6.16 µM
GI50 (HT29 colon): 20.6 µM
TGI (HT29 colon): 53.1 µM
GI50 (RXF 393 renal): 3.11 µM
TGI (RXF 393 renal): 9.38 µM
GI50 (SK-MEL-28 melanoma): 4.4 µM
TGI (SK-MEL-28 melanoma): 15 µM
GI50 (SF-268 CNS): 2.57 µM
TGI (SF-268 CNS): 8.07 µM
GI50 (SW-620 colon): 3.91 µM
TGI (SW-620 colon): 16.2 µM
GI50 (EKVX NSCLC): 12.3 µM
TGI (EKVX NSCLC): 25.3 µM
GI50 (TK-10 renal): 17.5 µM
TGI (TK-10 renal): 31.7 µM
